Laboratory results reported in BindingDB's records for doi:10.1021/bi7000505 (Wyeth Research, 2007).

Target: T1, Caspase-3 (Homo sapiens, UniProt P42574)
T1 sequence (P42574 whole entry): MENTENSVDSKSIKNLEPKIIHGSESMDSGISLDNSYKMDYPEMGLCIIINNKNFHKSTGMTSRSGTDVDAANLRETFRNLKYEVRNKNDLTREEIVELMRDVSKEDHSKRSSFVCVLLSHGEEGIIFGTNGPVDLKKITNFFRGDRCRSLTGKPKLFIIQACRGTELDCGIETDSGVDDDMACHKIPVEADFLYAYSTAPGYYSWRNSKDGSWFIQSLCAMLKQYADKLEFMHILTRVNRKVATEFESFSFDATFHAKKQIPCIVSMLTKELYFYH

Compound	Ki
O=C1Nc2ccc(S(=O)(=O)N3CCC[C@H]3COc3cccnc3)cc2C1=O [5-{[(2S)-2-[(pyridin-3-yloxy)methyl]pyrrolidine-1-]sulfonyl}-2,3-dihydro-1H-indole-2,3-dione]	16.1 nM
O=C(O)C[C@H](NC(=O)[C@@H](c1ccccc1)n1cccc(NC(=O)c2ccc3ccccc3c2)c1=O)C(=O)COc1ccccc1 [(3S)-3-[(1R)-1-[3-(naphthalene-2-amido)-2-oxo-1,2-dihydropyridin-1-yl]-1-phenylacetamido]-4-oxo-5-phenoxypentanoic acid]	165 nM
CN1C(=O)C(=O)c2cc(S(=O)(=O)N3CCC[C@H]3COc3ccccc3)ccc21 [(S)-1-Methyl-5-{1-[2-(phenoxymethyl)pyrrolidinyl]sulfonyl}isatin]	11 nM
O=C1C(=O)N(Cc2ccccc2)c2ccc(S(=O)(=O)N3CCC[C@H]3COc3ccccc3)cc21 [JMC522188 Compound 2]	2.5 nM
